Source: patent US9241976B2, “Use of HDL-related molecules to treat and prevent proinflammatory conditions” (THE REGENTS OF THE UNIVERSITY OF CALIFORNIA, priority 2011, dated 2016)
Square brackets hold non-standard residues; d marks the D form. Ends that are not written are not given here. Peptide text beside a SMILES is read from it. * marks the point of attachment. Cbz = O=C(OCc1ccccc1)*; Aib = CC(C)(N)C(=O)O

How the values were obtained:
NIH3T3 cells [1] = test: NIH3T3 cell viability, MTS assay; assay type: cell-based; conditions: 10 μg/mL, 48 hours
Protocol: CT26 and NIH3T3 cells (2,000 cells per well) were first cultured in complete medium in 96-well culture plates, and 24 hours later the medium was replaced with serum-free medium. […] Cells were incubated for an additional 48 hours and assayed for viability using MTS assays kit (Promega) according to the manufacturer's protocol.

CT26 cells [2] = test: Tumor-load study: CT26 flank tumors in BALB/c mice; assay type: in vivo, mouse; conditions: for flank tumor volume / flank tumor weight: Example 3, 10 mg/kg subcutaneous daily for 15 days
Protocol: (§1) 6-week-old BALB/c female mice were given a 100 μL subcutaneous injection of 1×10^6 CT26 cells prepared as a single cell suspension in PBS, and the mice were treated with bHDLor BHDLat 10 mg/kg administered subcutaneously (SQ) daily for 15 days. The mice were sacrificed and tumor weights were measured.
6-week-old BALB/c female mice were given a 100 μl subcutaneous injection of 1×10^6 CT26 cells prepared as a single cell suspension in PBS, treated with peptide at 10 mg/kg by SQ daily for 15 days.
The mice were killed and tumor weights were measured. The tumor volumes were measured using the formula V=½ (L×W^2).
as §1, with “Six-week-old” for “6-week-old”, “[…]” for “μL”, “sc-4F or L-4F at” for “bHDLor BHDLat”, “subcutaneously” for “subcutaneously (SQ)”

CT26 cells [3] = test: CT26 cell viability, MTS assay; conditions: for Cell viability reduced by, compared with control: Example 3, CT26 cells, 10 μg/ml, 48 hours; for CT26 cell viability vs vehicle-treated controls: Example 6, MTS assay, within 48 hours of treatment
Protocol: CT26 cell line derived from N-nitroso-N-methyl urethane-induced mouse colon carcinoma of BALB/c origin was purchased from the American Type Culture Collection (ATCC). CT26 cells (2,000 cells per well) were first cultured in complete medium in 96-well culture plates, and 24 hours later the medium was replaced with serum free medium. Following an overnight incubation, the cells were either treated with vehicle (control), or treated with 10 μg/mL of either bHDL. The bHDL were dissolved in H2O. Cells were incubated for an additional 48 hours and assayed for viability using the MTS assays kit (Promega) according to the manufacturer's protocol.
CT26 cell line derived from N-nitroso-N-methyl urethane-induced mouse colon carcinoma of BALB/c origin was purchased from the American Type Culture Collection. CT26 cells (2,000 cells per well) were first cultured in complete medium in 96-well culture plates, and 24 hours later the medium was replaced with serum-free medium. Following an overnight incubation, the cells were either treated with vehicle (control) or treated with 10 mg/mL of either L-4F or G* peptide. The peptides were dissolved in H2O. Cells were incubated for an additional 48 hours and assayed for viability using the MTS assay kit (Promega) according to the manufacturer's protocol.

HIF-1α = HIF-1α protein expression in human ovarian cancer cell lines, Western blot; assay type: cell-based; conditions: OV2008 cells; MG-132 10 μM 3 h, L-4F 10 μg/ml 1 h, insulin 200 nM 4 h
Protocol: OV2008 cells were cultured in RPMI 1640 media with 10% fetal bovine serum, penicillin (100 U/ml), streptomycin (100 μg/ml), 1× minimal essential medium nonessential amino acid solution (Invitrogen, Carlsbad, Calif.), and insulin (0.25 U/ml) (Invitrogen). CAOV-3 cells were cultured in complete media consisting of Dulbecco's modified Eagle's medium with high glucose and L-glutamine (2 mM), 10% fetal bovine serum, penicillin (100 U/ml), streptomycin (100 μg/ml), and insulin (0.02 U/ml). To create hypoxic conditions, cells were transferred to a hypoxic chamber (model 3130; Thermo Fisher Scientific, Waltham, Mass.), where they were maintained at 37° C. in an atmosphere containing 5% CO2, 1% O2, and 94% N2. L-4F (the peptide Ac-D-W-F-K-A-F-Y-D-K-V-A-E-K-F-K-E-A-F-NH2 (SEQ ID NO: 12) synthesized from all L amino acids) was dissolved in water at 1 mg/ml (freshly prepared every time) and used between 1 and 10 μg/ml. L-5F was synthesized by Peptisyntha Inc. (Torrance, Calif.), dissolved in ABCT buffer (50 mM ammonium bicarbonate, pH 7.0, containing 0.1 mg/ml Tween 20) at 1 mg/ml, and diluted to the required concentrations before use. Cobalt chloride (CoCl2), insulin, cycloheximide (CHX), and N-(benzyloxycarbonyl)leucinylleucinylleucinal-Z-Leu-Leu-Leu-al (MG-132) were purchased from Sigma-Aldrich (St. Louis, Mo.). LPA (Avanti Polar Lipids, Alabaster, Ala.) in chloroform was dried as recommended by the manufacturer, dissolved in ethanol at a concentration of 20 mM as a stock solution, and diluted to the required concentrations in the corresponding cell culture media before use.
Western blot analyses were performed as described previously (Gao et al., 2011). In brief, cell lysates were collected in a lysis buffer containing 0.1 MNaCl, 5 mM EDTA, 50 μM sodium orthovanadate, 1% Triton X-100, and protease inhibitor tablet (Roche Diagnostics, Indianapolis, Ind.) in 50 mM Tris buffer, pH 7.5, loaded onto 4 to 12% Bis-Tris gel (Invitrogen), transferred to polyvinylidene difluoride membrane, and incubated with the appropriate antibodies. Anti-pThr^202/Tyr^204-Erk, anti-Erk, anti-pThr^389-p70 S6 kinase, anti-p70 S6 kinase, anti-pSer^473-Akt, and anti-Akt antibodies were purchased from Cell Signaling Technology (Danvers, Mass.); mouse anti-human HIF-1α antibody was purchased from BD Pharmingen (San Diego, Calif.); rabbit anti-mouse HIF-1α antibody was purchased from Abcam Inc. (Cambridge, Mass.); and anti-GAPDH antibody was purchased from Santa Cruz Biotechnology Inc. (Santa Cruz, Calif.).

APC^min/+ mice = APC^min/+ mice study, intestinal tumors; assay type: in vivo; conditions: C57BL/6J-APC^min/+ mice; 100 mg/kg/d in mouse chow for 8 weeks
Protocol: (§2) 6-week-old APC^Min/+ male mice on a C57BL/6J background were treated with bHDL 100 mg/kg/day administered in a chow diet. After 8 weeks treatment, mice were sacrificed. The entire intestine was immediately removed, fixed in formalin and 70% ethanol. The intestine was opened and examined under a dissecting microscope to count and measure the tumors.
as §2, with “Six-week-oldAPC^min/+” for “6-week-old APC^Min/+”, “L-4F or sc-4F at” for “bHDL”, “mg/kg/d” for “mg/kg/day”

CT26 cells [4] = test: Pulmonary metastasis in vivo: CT26 lung tumors in BALB/c mice; set-up: species or system mouse; conditions: CT26 via tail vein
Protocol: BALB/c mice were intravenously injected with 2×10^4 CT26 cells in 100 μL of PBS via tail vein injection and the mice were treated with bHDL at 10 mg/kg/day administered SQ for 3 weeks; or treated with bHDL at 100 mg/kg/day administered in a chow diet for 3 weeks. After 3 weeks treatment, the mice were sacrificed; lungs were harvested, weighed and fixed with Bouin's solution (Sigma). Tumor nodules on the lung surface were counted.
BALB/c mice were intravenously injected with 2×10^4 CT26 cells in […] of PBS via tail vein injection and the mice were treated with L-4F or sc-4F at 10 mg/kg/d administered subcutaneously for 3 weeks, or treated with sc-4F or L-4F or G* peptide at 100 mg/kg/d administered in a chow diet for 3 weeks. After 3 weeks treatment, the mice were sacrificed; lungs were harvested, weighed, and fixed with Bouin solution (Sigma). Tumor nodules on the lung surface were counted.

NIH3T3 cells [5] = test: UV-induced cell death, NIH3T3 cell viability; assay type: cell-based; conditions: pre-treatment 10 μg/ml for 24 hrs; UV 5, 10, 20 mJ/cm^2
Protocol: NIH 3T3 ([…]) ells were seeded in 96 well plates in 4 separate plates. After 24 hrs, cells were starved overnight. Apo A-l was used at a concentration (10 μg/ml) to treat the cells for 24 hrs. After treatment of cells were washed with PBS. One plate was used as a control without UV treatment. The remaining three plates were used for UV treatment at 5, 10, and 20 mJ/cm^2. Following UV treatment, cells were given complete media and were cultured for another 24 hrs. Cell viability was measured for all the plates as described previously (Ganapathy E, et al., 2011, D-4F, an apoA-1 mimetic peptide inhibits proliferation and tumorigenicity of epithelial ovarian cancer cells by upregulating the antioxidant enzyme MnSOD, Int J Cancer 130:1071-1081).

[6] = 10 mg/kg/d subcutaneously for 3 weeks
[7] = 100 mg/kg/d in chow diet for 3 weeks

Compound: CC(=O)N[C@@H](CC(C)C)C(=O)N[C@@H](CCCNC(=N)N)C(=O)N[C@@H](CCCCN)C(=O)N[C@@H](CC(C)C)C(=O)N[C@@H](CCCNC(=N)N)C(=O)N[C@@H](CCCCN)C(=O)N[C@@H](CCCNC(=N)N)C(=O)N[C@@H](CC(C)C)C(=O)N[C@@H](CC(C)C)C(=O)N[C@@H](CCCNC(=N)N)C(=O)N[C@@H](CC(=O)O)C(=O)N[C@@H](Cc1c[nH]c2ccccc12)C(=O)N[C@@H](CC(C)C)C(=O)N[C@@H](CCCCN)C(=O)N[C@@H](C)C(=O)N[C@@H](Cc1ccccc1)C(=O)N[C@@H](Cc1ccc(O)cc1)C(=O)N[C@@H](CC(=O)O)C(=O)N[C@@H](CCCCN)C(=O)N[C@H](C(=O)NC(C)(C)C(=O)N[C@@H](CCC(=O)O)C(=O)N[C@@H](CCCCN)C(=O)N[C@@H](CC(C)C)C(=O)N[C@@H](CCCCN)C(=O)N[C@@H](CCC(=O)O)C(=O)NC(C)(C)C(=O)N[C@@H](Cc1ccccc1)C(N)=O)C(C)C [28AA-2, LRKLRKRLLRDWLKAFYDKV-Aib-E-K-L-K-E-Aib-F] (HELM PEPTIDE1{[ac].L.R.K.L.R.K.R.L.L.R.D.W.L.K.A.F.Y.D.K.V.[Aib].E.K.L.K.E.[Aib].F.[am]}$$$$V2.0; N-terminus and C-terminus assumed)
- NIH3T3 cell viability (NIH3T3 cells [1]): not affected

Compound: CC(=O)N[C@@H](CC(=O)O)C(=O)N[C@@H](Cc1c[nH]c2ccccc12)C(=O)N[C@@H](Cc1ccccc1)C(=O)N[C@@H](CCCCN)C(=O)N[C@@H](C)C(=O)N[C@@H](Cc1ccccc1)C(=O)N[C@@H](Cc1ccc(O)cc1)C(=O)N[C@@H](CC(=O)O)C(=O)N[C@@H](CCCCN)C(=O)N[C@H](C(=O)NC(C)(C)C(=O)N[C@@H](CCC(=O)O)C(=O)N[C@@H](CCCCN)C(=O)N[C@@H](Cc1ccccc1)C(=O)N[C@@H](CCCCN)C(=O)N[C@@H](CCC(=O)O)C(=O)NC(C)(C)C(=O)N[C@@H](Cc1ccccc1)C(N)=O)C(C)C [L-4F2, Ac-D-W-F-K-A-F-Y-D-K-V-Aib-E-K-F-K-E-Aib-F-NH2] (HELM PEPTIDE1{[ac].D.W.F.K.A.F.Y.D.K.V.[Aib].E.K.F.K.E.[Aib].F.[am]}$$$$V2.0)
- NIH3T3 cell viability (NIH3T3 cells [1]): not affected
- flank tumor volume (CT26 cells [2]): 197 mm^3
- flank tumor weight (CT26 cells [2]): 118 mg
- Cell viability reduced by, compared with control (CT26 cells [3]): more than 30%
- CT26 cell viability vs vehicle-treated controls (CT26 cells [3]): reduced cell viability

Compound: CC(C)C[C@@H](C=O)NC(=O)[C@H](CC(C)C)NC(=O)[C@H](CC(C)C)NC(=O)OCc1ccccc1 [MG-132, N-(benzyloxycarbonyl)leucinylleucinylleucinal-Z-Leu-Leu-Leu-al, reference compound] (Cbz-Leu-Leu-Leu-aldehyde)
- effect on the L-4F inhibition of insulin-mediated HIF-1α expression (HIF-1α): led to a reversal of the inhibitory effect of L-4F

Compound: Ac-D-W-F-A-K-D-Y-F-K-K-A-F-V-E-E-F-A-K-NH2 (Ac-DWFAKDYFKKAFVEEFAK-NH2) [sc-4F, reference compound]
- numbers of tumors of diameter 1-3 mm (APC^min/+ mice): 56.5
- numbers of tumors of diameter >3 mm (APC^min/+ mice): 12.8
- total tumor numbers in the intestinal tract, percent of the control (APC^min/+ mice): 100%
- flank tumor volume (CT26 cells [2]): 555 mm^3
- flank tumor weight (CT26 cells [2]): 273 mg
- flank tumor weights (CT26 cells [2]; Example 5, 10 mg/kg subcutaneously daily for 15 days): 778 mg
- lung weights (CT26 cells [4]; [6]): 280 mg
- tumor numbers counted on the lung surface (CT26 cells [4]; [6]): 33
- lung weights (CT26 cells [4]; [7]): 296 mg
- tumor numbers on the lung surface (CT26 cells [4]; [7]): 21

Compound: Ac-LRKLRKRLLRDWLKAFYDKVAEKLKEAF-NH2 [28AA, LRKLRKRLLRDWLKAFYDKVAEKLKEAF, reference compound]
- NIH3T3 cell viability (NIH3T3 cells [1]): not affected
- flank tumor weight (CT26 cells [2]): 188 mg
- Cell viability reduced by, compared with control (CT26 cells [3]): 70%

Compound: ApoA-II: a protein that is also associated with HDL like apoA-I [reference compound]
- UV-induced cell death (cell viability) (NIH3T3 cells [5]): did not prevent UV-induced cell death

Compound: ApoA-l: full-length and unmodified ApoA-I, typically human, a 28.2 kDa protein of 244 amino acids
- UV-induced cell death (cell viability) (NIH3T3 cells [5]): protects NIH3T3 cells from UV-induced cell death

Compound: K4,15-4F2: SEQ ID NO: 28; K4,15-4F further modified with Aib substitution for alanine at positions 11 and 17 (DWFRAFYDKV[Aib]EKFRE[Aib]F)
- CT26 cell viability vs vehicle-treated controls (CT26 cells [3]): reduced cell viability

Compound: K4,15-4F: SEQ ID NO: 27; based on K14,15 peptides of Nayyar et al., lysines substituted with arginines at residues 4 and 15 (DWFRAFYDKVAEKFREAF; synthetic peptide mimetic)
- CT26 cell viability vs vehicle-treated controls (CT26 cells [3]): reduced cell viability

Compound: LRKLRKRLLR LVGRQLEEFL (LRKLRKRLLRLVGRQLEEFL; synthetic peptide mimetic) [20AA]
- CT26 cell viability vs vehicle-treated controls (CT26 cells [3]): reduced cell viability
